The values below come from patent publication US7514068B2, “Biphenyl-pyrazolecarboxamide compounds” (Concert Pharmaceuticals Inc., priority 2005, dated 2009).

The nature of data set [1]: RIO-North American Phase III clinical trial, adverse-event associated discontinuations. It counts as in vivo, human. The note with it: 20 mg dose. An excerpt:
In reports of these clinical trials Compound 1 was described as having a good safety profile with relatively low increases in serious adverse events across the different dose groups tested. However, it is clearly less well tolerated in higher doses, with the more common side effects including depression, anxiety, and irritability, and in some but not all studies, significant amounts of nausea. Even in a highly motivated Phase III clinical trial population, a considerable number of dose-dependent discontinuations occurred.

For data set [2] the following is noted: RIO-North American trial, cited from earlier work.
For data set [3] the following is noted: rat liver microsome assays; cited from earlier work. On the technique in general: Microsomes from liver hold many membrane-bound enzymes, among them those of drug oxidation.
Another data set relates to CB1 vs. CB2 receptor. The conditions noted are these: in vitro receptor binding studies; cited from earlier work.
Data set [4] relates to wide range of other neurological receptors. The note with it: in vitro receptor binding studies; cited from earlier work.
The subject of another data set is rats. The conditions noted are these: cited from earlier work.
A further data set has as its system animal models. The conditions noted are these: cited from earlier work.

Read-outs that look alike come from different tables or passages of the source.

Turning to `Cc1c(C(=O)NN2CCCCC2)nn(-c2ccc(Cl)cc2Cl)c1-c1ccc(Cl)cc1` [Compound 1, N-(piperidin-1-yl)-5-(4-chlorophenyl)-1-(2,4-dichlorophenyl)-4-methyl-1H-pyrazole-3-carboxamide], the “increase of adverse-event associated discontinuations versus placebo” value in data set [1] was 77%. The “first year adverse-event associated discontinuations” value is reported as 9.4% in data set [2] (5 mg dose) and 12.8% in data set [2] (20 mg dose). Further, the sites of metabolism entry in data set [3] is reported as “hydroxylation only on the pyrazole 3-substituent”.
Turning to `CCc1c(C(=O)NN2CCCCC2)nn(-c2ccc(Cl)cc2Cl)c1-c1ccc(Br)cc1` [Compound 1A, 5-(4-bromophenyl)-1-(2,4-dichlorophenyl)-4-ethyl-N-(1-piperidinyl)-1H-pyrazole-3-carboxamide], the “selectivity for the CB1 vs. CB2 receptor” value with CB1 vs. CB2 receptor is on record as “highly selective”. Further, the “affinity for a wide range of other neurological receptors” value in data set [4] was “little affinity”. Also, in the data set with rats, the “in vivo effects of cannabinoid agonists (hypothermia, ring immobility, increased tail flick latency)” value is “reverse”. In addition, in the data set on animal models, the “duration of action compared with Compound 1” value is “longer”.
